US11542473B2, “Methods and compositions for generating hematopoietic cells” (priority 2016, dated 2023)

Columns and labels:
[1] = test system: hPSC-derived hematopoietic cells (iPSC line RB9-CB1); test: hPSC-to-hematopoietic differentiation, flow cytometry of HSC-like surface phenotype (Example 2); assay type: cell-based, human; settings: for HSC-like phenotype: specificity controls for cAMP, day 14; for concentration required to increase HSC-like phenotype as compared to Forskolin: day 14, representative experiment; for frequency of HSC-like cells after inhibition / hematopoietic cell generation efficiency / blood emergence (CD43): inhibition on day 10 and day 12, analysis day 14
Protocol: Human iPSC line RB9-CB1 derived from cord blood endothelial cells was cultured on irradiated mouse embryonic fibroblasts (MEFs) in Dulbecco's Modified Eagle Medium:Nutrient Mixture F-12 (DMEM/F12) supplemented with 20% KnockOut-serum replacement (KOSR), 2 mM L-glutamine, 0.1 mM non-essential amino acids, 0.1 mM 2-mercaptoethanol and 10 ng/ml basic fibroblast growth factor, all from Thermo Fischer Scientific Inc. (Waltham, Mass., USA). The cells were incubated in a humidified incubator at […] and 5% CO2.
(§1) Embryoid bodies (EBs) were prepared after incubating the pluripotent stem cell colonies with 2 mg/ml Dispase (Thermo Fischer Scientific Inc.), followed by gentle pipetting. The detached colonies were washed twice with 20% KOSR containing DMEM/F12, before plating in ultra low-adherence suspension culture dishes (Corning Inc., Corning, N.Y., USA) to form EBs for 8 days. During suspension culture, MesoTotal™ HPC/HSC Differentiation System (Primorigen Biosciences, Madison, Wis., USA) was used to specify the EBs towards mesoderm commitment. At day 8, EBs were plated on 0.08 μg/mm2 Matrigel™ (BD Biosciences, Franklin Lakes, N.J., USA) and further differentiation towards hematopoietic cells was carried out till day 14 in MesoTotal medium.
(§2) Application of fresh medium and treatment with 10 μM Forskolin (Stemgent, Cambridge, Mass., USA), 500 μM IBMX (3-isobutyl-1-methylxanthine, Santa Cruz Biotechnology, Dallas, Tex., USA) was carried out at day 10 and day 12 of differentiation. To inhibit PKA and Epac, 50 μM PKA inhibitor (Rp-8-CPT-cAMPS) and 20 μM Epac inhibitor (ESI-09) (both from BIOLOG Life Science Institute, Bremen, Germany) were used (20 min pretreatment followed by cAMP induction) on day 10 and day 12 of differentiation and the cells were analyzed on day 14. To analyze hemogenic endothelium, PKA and Epac were inhibited on day 6 and day 8 and the cells were analyzed on day 10. The distance between center of an EB and outer edge of its cellular spread was analyzed using ImageJ (developed at the National Institutes of Health, USA). Colony Formation Assay

[2] = test system: differentiating human ES/iPS cells; test: hPS-to-blood differentiation, FACS analysis of hematopoietic subsets (Example 1); assay type: cell-based
[3] = test system: adherent endothelial-like cells of plated EBs; test: Radial spreading of adherent endothelial-like cells from embryoid bodies (ImageJ); assay type: cell-based, human; settings: in the absence or presence of Forskolin+IBMX
Protocol: as §1, with “At day 8, EBs were plated on 0.08 μg/mm2 Matrigel™ (BD Biosciences, Franklin Lakes, N.J., USA) and further differentiation towards hematopoietic cells was carried out till day 14 in MesoTotal medium.” left out
as §2, with “Colony Formation Assay” left out

[4] = test system: hemogenic endothelium phenotype cells (CD43-CD34+CXCR4-CD73-Vecad+); test: Hemogenic endothelium phenotype by flow cytometry; assay type: cell-based, human; settings: inhibition on day 6 and day 8, analysis day 10; in the absence or presence of Forskolin+IBMX
Protocol: as §2

[5] = test system: CXCR4 in hPSC-derived hematopoietic cells; test: CXCR4 surface expression by flow cytometry; assay type: cell-based, human; settings: with or without cAMP induction, compared to the control
Protocol: as §2

[6] = test system: hPSC-derived hematopoietic cells; test: ROS detection with CellROX Deep Red by flow cytometry; assay type: cell-based, human; settings: day 14; versus control
Protocol: as §2

[7] = test system: hematopoietic cells derived from human ES/iPS cells; test: Colony forming unit assay in methylcellulose (Example 1); assay type: cell-based
Protocol: CFU potential of hematopoietic cells after the 14 day differentiation assay was assessed by plating 2×10^4 cells in Methocult […] (Stem Cell Technologies) supplemented with human SCF (25 ng/ml), GM-CSF (50 ng/ml), IL3 (25 ng/ml) and Erythropoietin (5 U/ml). Cells were incubated in a humidified incubator at 37° C., 5% CO2 for 14 days and colonies were quantified by bright-field microscopy.

human cord blood = settings: PGE2-mediated cAMP activation; cited from earlier work
HSC egress from the BM = settings: administration to mice; cited from earlier work
[8] = NE treatment (10 μM, 300 μM) at day 10 and 12, analysis day 14

C=C[C@@]1(C)CC(=O)[C@@H]2[C@@]3(C)CCCC(C)(C)[C@@H]3[C@H](O)[C@H](OC(C)=O)[C@@]2(C)O1 [1,9-dideoxy Forskolin, 1,9-Dideoxyforskolin]
HSC-like phenotype [1]: cannot induce

Nc1ncnc2c1nc(Br)n2[C@@H]1O[C@@H]2COP(=O)(O)O[C@H]2[C@H]1O [8-Br-cAMP, 8-bromo-adenosine-3′,5′-cyclic monophosphate]
concentration required to increase HSC-like phenotype as compared to Forskolin [1]: 10 fold
HSC-like phenotype [1]: upregulated

Cc1ccc(OCC(O)C(C)NC(C)C)c2c1CCC2 (stereo not shown) [ADRB2 antagonist, ICI118,551]
mediation of the norepinephrine effect through ADRB2 ([2]; addition of specific ADRB2 antagonist (ICI118,551 at 20 μM) to NE-treated cultures): unlikely to be mediated through this receptor

CC(C)(C)c1cc(C(=O)C(C#N)=NNc2cccc(Cl)c2)no1 [Epac inhibitor]
frequency of HSC-like cells after inhibition [1]: decreased
hematopoietic cell generation efficiency / blood emergence (CD43) [1]: reduced
radial spreading of adherent endothelial-like cells [3]: reduced
hemogenic endothelial fraction [4]: decreased
CXCR4 expression after Epac inhibition [5]: reduced

CC(C)Cn1c(=O)n(C)c(=O)c2[nH]cnc21 [IBMX, 3-isobutyl-1-methylxanthine]
ROS levels in various hematopoietic phenotypes, including the HSC-like cells [6]: significantly lowered

NC[C@H](O)c1ccc(O)c(O)c1 [NE, Norepinephrine]
colony formation (CFU frequency) in methylcellulose ([7]; hematopoietic cells generated with 300 μM (NE300)): significant increase
distribution of colony types ([7]; hematopoietic cells generated with NE): not affected
HSC-like phenotype in total viable cells ([2]; 300 μM (NE300) at day 10 and day 12, analysis at day 14): significantly increased
frequency of CD34high CD90high endothelial precursors ([2]; NE added at 300 μM): trend for an increase
blood fraction (CD43/45+ in total viable) [2, 8]: unchanged
progenitor fraction (CD34+ in CD43/45+ blood) [2, 8]: unchanged
HSC-like cells in the CD43/45+ blood population ([2]; NE treatment at day 10 and 12, analysis day 14): specifically and significantly upregulated

Nc1ncnc2c1nc(Sc1ccc(Cl)cc1)n2[C@@H]1O[C@@H]2COP(O)(=S)O[C@H]2[C@H]1O (stereo partly shown) [PKA inhibitor, Rp-8-CPT-cAMPS]
frequency of HSC-like cells after inhibition [1]: no negative effect
hematopoietic cell generation efficiency / blood emergence (CD43) [1]: no negative effect
radial spreading of adherent endothelial-like cells [3]: did not have any effect
hemogenic endothelial fraction [4]: no negative effect

CCCCC[C@H](O)/C=C/[C@H]1[C@H](O)CC(=O)[C@@H]1C/C=C\CCCC(=O)O [Prostaglandin E2 (PGE2), Prostaglandin E2]
human cord blood engraftment (human cord blood): enhances

CCCC(=O)Nc1ncnc2c1ncn2[C@@H]1O[C@@H]2COP(=O)(O)O[C@H]2[C@H]1OC(=O)CCC [dibutyryl-cAMP, N6,O2-dibutyrl-adenosine-3′,5′-cyclic monophosphate]
concentration required to increase HSC-like phenotype as compared to Forskolin [1]: 10 fold
HSC-like phenotype [1]: upregulated

CNC[C@H](O)c1ccc(O)c(O)c1 [epinephrine]
HSC egress from the BM (HSC egress from the BM): increased
